Structures are written as SMILES.

This passage reports viability results from paper PMC12040169 (PLOS Biology, 2025).

The first data set can be described thus: in vitro. As to conditions: human, hela cells, % viability.
On to `CC(=O)N1CCC(O)(Cn2c(C3CC3)cc3cccnc32)CC1` [CBK283082], for which the viability at 28.5 h, 10 µM turned out to be 111%.
The same measure, in the same setting: then `CN(C)S(=O)(=O)N(CC(=O)Nc1cccc([N+](=O)[O-])c1)c1ccccc1` [CBK265904], with 90.2%.
For the molecule `Cc1cc(-c2ccccc2)nn(CCN2CCOCC2)c1=O` [CBK023022C], the viability at 28.5 h, 10 µM was 88%.
As for `Cc1cc(OC(C)C(=O)NCc2ccccn2)ccc1Cl` (centres unmarked) [CBK269617], the viability at 28.5 h, 10 µM is 110%.
The same measure, in the same setting: the figure for `Cc1nccn1CC1(O)CCN(Cc2ccc(F)c(F)c2)CC1` [CBK284955] is 117%.
With `OCCN1CCN(CC(O)COCC2COc3ccccc3O2)CC1` (centres unmarked) [CBK027374C], the viability at 28.5 h, 10 µM was found to be 97.3%.
Same read-out and setting: the figure for `OCCN1CCN(c2nnc(-c3ccccc3)cc2-c2ccccc2)CC1` [CBK270045] is 86.2%; for `CCN(CC)C(=O)CCNC(=O)c1ccc2c(c1)COC(C1CCN(C(=O)OC(C)(C)C)CC1)O2` (centres unmarked) [CBK173273] it is 92.2%.
The same measure, in the same setting: the figure for `CN(C)CCN1C(=O)C(O)=C(C(=O)c2cccs2)C1c1ccc([N+](=O)[O-])cc1` (centres unmarked) [CBK264584] is 92.6%.
For `Cc1ccc(Nc2cc(-c3ccsc3)ncn2)cc1NS(C)(=O)=O` [CBK091149], the viability at 28.5 h, 10 µM was found to be 97.9%.
The same measure, in the same setting: then `N#CCCN(C(=O)NCc1c(Cl)cccc1Cl)C1CCCCC1` [CBK156371], with 88%.
Still for that read-out and setting: then `O=S(=O)(Nc1cccc(-c2cnco2)c1)c1ccc(Br)cc1C(F)(F)F` [CBK067118], with 93.4%.
In the case of `COc1nc(NCCc2ccc(OC)c(OC)c2)nc(OC)n1` [CBK266304], the viability at 28.5 h, 10 µM amounted to 94.4%.
Turning to `CC(=O)NCCc1nc2ccc(NC(=O)Cn3nc(C)c4ccccc4c3=O)cc2n1C` [CBK268249], the viability at 28.5 h, 10 µM was 111%.
On to `CC(=O)Nc1cc(S(=O)(=O)N2CCOCC2)c(Br)cc1C` [CBK034334], for which the viability at 28.5 h, 10 µM was 92.8%.
Same read-out and setting: the figure for `N#Cc1cnn(-c2ccc(Cl)cc2Cl)c1N` [CBK086125] is 89.2%; for `Nc1ccc([C@@H]2CN(Cc3ccccc3)C[C@]23CCCC(=O)N3)cc1` [CBK284649] it is 97.5%.
Turning to `Cn1cc(-c2ccncc2)c(C2CCCCN2C(=O)c2ccccc2)n1` (centres unmarked) [CBK283444], the viability at 28.5 h, 10 µM was determined as 75.7%.
Same read-out and setting: the figure for `Cc1c(Cl)cccc1NC(=S)/N=C(\N)Nc1nc(C)c2ccccc2n1` [CBK268866] is 86.9%; for `COc1cc(/C=N/n2cnnc2)ccc1OS(=O)(=O)c1ccccc1[N+](=O)[O-]` [CBK263814] it is 89.3%; for `O=C(NC(c1ccccc1)c1ccco1)C1CCN(C(=O)c2cccs2)CC1` (centres unmarked) [CBK059854] it is 82.4%.
The same measure, in the same setting: then `CC(N)(Cc1ccc(Oc2ncc(C(F)(F)F)cc2Cl)cc1)C(=O)O` (centres unmarked) [CBK161647], with 91.9%.
On the same count and under the same terms, the figure for `Cc1cc(C)n(C(C)CNC(=O)C(C)n2ccnc2)n1` (centres unmarked) [CBK282049] is 109%.
Turning to `Cc1cccc(C2(CNC(=O)C3COCCO3)CCCCC2)c1` (centres unmarked) [CBK305087], the viability at 28.5 h, 10 µM stood at 109%.
Still for that read-out and setting: then `CCN(CC)CCN1C(=O)CCC2(c3ccccc3)CCC(=O)C=C12` (centres unmarked) [CBK023010C], with 105%; and `CC1(C)CC(=O)N(C2CCCCC2)C(=O)C1C#N` (centres unmarked) [CBK009894], with 107%.
Consider `CCC(CO)NC(=O)c1cnc(-c2cccc(C)c2)c(-c2ccc(OC)cc2)c1` (centres unmarked) [CBK037460], for which the viability at 28.5 h, 10 µM worked out at 101%.
Still for that read-out and setting: the figure for `O=C(O)CC1C(=O)NCCN1Cc1ccc(-c2ccccc2)cc1` (centres unmarked) [CBK269812] is 91%; for `COc1ccc(Cn2nc(NC(=O)c3cn(C)c4ccccc34)c3ccccc32)cc1` [CBK048344] it is 57.2%; for `CC(=O)N1CCc2nc(C)nc(NCCn3cccc3)c2CC1` [CBK307130] it is 83.7%.
Same read-out and setting: then `O=C(Nc1cnc(-c2cccc(C(F)(F)F)c2)c(-c2ccco2)n1)c1ccccn1` [CBK036873], with 88.5%; and `CSCC[C@@H]1CN2CCC[C@H]2CN1Cc1cnc(C)n1C` [CBK285423], with 109%.
The same measure, in the same setting: the figure for `O=C(O)c1cccc(CSc2nnc(Cc3ccccc3)[nH]2)c1` [CBK268029] is 94.1%; for `O=C1NCCNC(=O)C2(C/C=C/COc3ccccc31)CCN(C(=O)c1ccc3[nH]nnc3c1)CC2` [CBK292000] it is 106%.
`COc1ccc(F)cc1S(=O)(=O)Nc1cccc(C)n1` [CBK268842]: the viability at 28.5 h, 10 µM turned out to be 84.9%.
Still for that read-out and setting: then `S=C(NCc1ccco1)Nc1nn(Cc2ccc(Cl)cc2Cl)cc1Cl` [CBK267021], with 80.7%; and `O=C(COc1cc(Cl)c(Cl)cc1Cl)N1CCN(c2ccc([N+](=O)[O-])cc2)CC1` [CBK263783], with 97.1%; and `O=C(Nn1cnnc1)c1ccccc1F` [CBK027603], with 106%.
`O=C(C1=C(O)C(=O)N(CCCn2ccnc2)C1c1cccs1)c1ccc2c(c1)OCCO2` (centres unmarked) [CBK266170]: the viability at 28.5 h, 10 µM stood at 92%.
The same measure, in the same setting: then `O=S(=O)(c1ccc(F)c(Cl)c1)n1ccc2c(N3CCNCC3)nccc21` [CBK059059C], with 90.7%.
With `CCN1CCN(C(=O)c2ccccc2N(Cc2ccccc2)S(C)(=O)=O)CC1` [CBK267028], the viability at 28.5 h, 10 µM was 101%.
Same read-out and setting: the figure for `CN(C)CCN(C)c1cncc(-c2cccs2)n1` [CBK065679] is 108%; for `CSCCC(C(=O)O)N1C(=O)c2ccccc2C1=O` (centres unmarked) [CBK218448] it is 102%.
In the case of `CC1=CCC(C(=O)O)C(C(=O)Nc2cccnc2)C1` (centres unmarked) [CBK265895], the viability at 28.5 h, 10 µM amounted to 92.9%.
As for `COc1ccc(-c2cc(-c3ccccc3)c(C#N)c(S(=O)(=O)Cc3ccccc3)n2)cc1` [CBK265949], the viability at 28.5 h, 10 µM stood at 89.6%.
Still for that read-out and setting: the figure for `CC(=C\C(=O)O)/C(=C/c1ccncc1)C(=O)O` [CBK278265N] is 116%.
Turning to `NC(=O)CSc1nnc(-c2cc3ccccc3o2)n1Cc1ccccc1` [CBK268964], the viability at 28.5 h, 10 µM turned out to be 90.1%.
Take `CC(=O)O[B-]1(OC(C)=O)N(c2ccc(S(N)(=O)=O)cc2)N=C(c2ccccc2)N=[N+]1c1ccccc1` [CBK260879]: the viability at 28.5 h, 10 µM was 87.1%.
For `O=C(CCc1nc(O)c2c3c(sc2n1)CCCC3)NCC(=O)Nc1ccccc1Br` [CBK295348], the viability at 28.5 h, 10 µM was 101%.
Regarding `Cn1nccc1NS(=O)(=O)c1cccc2cccnc12` [CBK062069], the viability at 28.5 h, 10 µM amounted to 98.9%.
On the same count and under the same terms, then `Cc1ncsc1C(=O)N1CCCC(c2cc3cnccc3[nH]2)C1` (centres unmarked) [CBK283461], with 94%.
Same read-out and setting: the figure for `COCCNC(=O)c1ccc(-c2cccc(Cl)c2Cl)nc1N(C)C` [CBK106057] is 89.4%; for `OCc1cccc(-c2cc(NCc3ccccc3)n3nccc3n2)c1` [CBK037113] it is 95.6%; for `COCCCn1c(=O)[nH]c2ncc(-c3cccc(NC(C)=O)c3)nc21` [CBK064433] it is 97.5%.
Still for that read-out and setting: the figure for `Cc1ccc(-c2nnc(CNC(=O)c3cccc(-c4ccc(F)cc4)c3)o2)s1` [CBK286300] is 109%; for `CCCc1[nH]nc(O)c1Cc1ccc(C(C)C)cc1` [CBK075033] it is 106%.
As for `COCCn1cc(C(=O)N2CCOC3CCCCC32)c2ccccc21` (centres unmarked) [CBK305288], the viability at 28.5 h, 10 µM is 113%.
Regarding `CCn1c(SCC(=O)Nc2ccc(C#N)cc2)nnc1-c1ccncc1` [CBK270102], the viability at 28.5 h, 10 µM worked out at 96.4%.
As to `CCNc1nccnc1-c1ccccc1Cl` [CBK037313], the viability at 28.5 h, 10 µM came to 79.9%.
The same measure, in the same setting: the figure for `O=C(/C=C/c1c(F)cccc1Cl)Nc1nnn[nH]1` [CBK265447] is 102%.
On to `CC(C)(CO)CNc1cncc(-c2cccs2)n1` [CBK065599], for which the viability at 28.5 h, 10 µM is 88.3%.
Take `COc1ccc2[nH]c3c(c2c1)CN(C(=O)CCC1CCCO1)CC3` (centres unmarked) [CBK281530]: the viability at 28.5 h, 10 µM was determined as 99.7%.
On the same count and under the same terms, the figure for `COCCCOc1nc2ccccc2nc1C(F)(F)F` [CBK115803] is 101%.
`CCNC(=O)Nc1cc2cccnc2nc1-c1cccc(C(F)(F)F)c1` [CBK070645]: the viability at 28.5 h, 10 µM stood at 94.1%.
In the case of `COc1ccc(-n2cc(-c3ccncc3)nn2)cc1OC` [CBK113106], the viability at 28.5 h, 10 µM amounted to 109%.
On the same count and under the same terms, the figure for `COc1ccnc(N2CCN(C(=O)c3ccc(C)n3C)CC2)n1` [CBK305803] is 84.7%.
Same read-out and setting: the figure for `CCn1ncc(CN2CCCC(CCC(=O)N3CCN(C)CC3)C2)c1C` (centres unmarked) [CBK306951] is 80.4%; for `O=C(CN1CC(O)CC1c1cccc(C(F)(F)F)c1)NCc1cccs1` (centres unmarked) [CBK305253] it is 82.6%; for `O=C(NCc1ccc(Cl)cc1)N1CCN(c2ccccc2)CC1` [CBK155193] it is 97.9%.
As to `O=S(=O)(c1ccccc1)N1C[C@@H]2CCCCN(CC3CC3)[C@@H]2C1` [CBK285501], the viability at 28.5 h, 10 µM amounted to 109%.
Take `OC[C@H]1O[C@@H](n2cnc3cncnc32)C[C@H]1O` [CBK201243]: the viability at 28.5 h, 10 µM stood at 113%.
Still for that read-out and setting: the figure for `CC(=O)N1CC2(CCN(Cc3nccn3C(C)C)CC2)CC1C(=O)O` (centres unmarked) [CBK306587] is 93.7%; for `OCCCNc1cncc(-c2ccc(F)cc2F)n1` [CBK065851] it is 96.1%; for `CC(C)NC(=O)NC[C@H]1C[C@@H]2CCN1C[C@@H]2c1cc(C2CCCCC2)nn1C` [CBK289107] it is 90.8%.
Still for that read-out and setting: the figure for `COc1cccc(NC(=O)N[C@H]2C[C@@H](c3nc(-c4ccccn4)no3)N(C)C2)c1` [CBK288853] is 108%.
Still for that read-out and setting: the figure for `Cc1cccc(Nc2nccc(-n3ccc(C)n3)n2)c1` [CBK288616] is 79.7%; for `c1ccc2nc3c(nc2c1)sc1nc2ccccc2n13` [CBK268872] it is 104%; for `CC(Oc1ccc(Cl)cc1Cl)C(=O)NC1CC(C)(C)NC(C)(C)C1` (centres unmarked) [CBK263951C] it is 90.3%.
With `COc1ccc([C@@]23CC[C@@H](NC(=O)Nc4ccccc4C#N)C[C@@H]2N(C)CC3)cc1OC` [CBK047540T], the viability at 28.5 h, 10 µM came out at 96.1%.

The data set is the same for the next values; noted with them: human, hela cells, % viability, bulk resorufin, single well.
As for `CC(C)=C1C2CCC1C(C(=O)N1CCC3(CC1)OCCO3)C2C(=O)O` (centres unmarked) [CBK286937], the viability at 28.5 h, 10 µM was 92.7%.

Usually viability stands for a read-out of living cells in per cent, often relative to untreated cells.
